Reference: patent US20100280035A1, “SOLID PHARMACEUTICAL COMPOSITION COMPRISING 1-(4-CHLOROANILINO)-4-(4-PYRIDYLMETHYL)PHTHALAZINE AND A PH MODIFIER” (priority 2005, published 2010)

Assay: Permeability of the Agent in the small intestine

For `Clc1ccc(Nc2nnc(Cc3ccncc3)c3ccccc23)cc1.O=C(O)CCC(=O)O` [Agent, 1-(4-chloroanilino)-4-(4-pyridylmethyl)phthalazine succinate], the permeability was “good”.
